For orientation: pKa means the negative logarithm of the acid dissociation constant.

The conditions of the first series: acidic group.
Take `CC(C)C(O[C@H]1O[C@@H](C(=O)O)[C@H](O)[C@@H](O)[C@@H]1O)C(C)C`: the pKa was found to be 3.89.
Still for that read-out and setting: as for `Nc1ccc(S(=O)(=O)Nc2ccc(N)nc2)cc1`, the figure is 8.82.
The same measure, in the same setting: as for `CC(c1cccc(F)c1)[N+](=O)[O-]` (configuration not stated), the figure is 7.05; as for `CN(C)c1cccc2c(S(=O)(=O)NCC(=O)O)cccc12`, 4.4; as for `NC(=O)NS(=O)(=O)c1ccc(N)cc1`, 5.41.
Same read-out and setting: as for `CC(O)[C@@H]1C[NH2+][C@H](C(=O)[O-])[C@H]1CC(=O)O` (some centres not stated), the figure is 4.35; as for `[NH3+][C@H]1CCCC[C@@H]1C(=O)O`, 3.59; as for `CC#C/C=C/C(=O)O`, 4.2.
With `COC(=O)C1c2ccccc2-c2ccccc21`, the pKa is 11.5.
In turn, `CC(=O)c1ccc(NS(=O)(=O)c2ccccc2)cc1` showed a pKa of 6.94.
On the same count and under the same terms, for `O=C(O)c1cccc2cc3ccccc3cc12` the value was 3.7; for `O=[N+]([O-])c1cccc(O)c1O`, 6.64; for `NS(=O)(=O)c1ccc([N+](=O)[O-])cc1`, 8.63.
Still for that read-out and setting: for `COc1ccc(CC(=O)O)cc1` the value was 4.36; for `Oc1ccc(/N=N/c2ccccc2)cc1`, 8.44; for `Oc1ccc(Cl)cc1C[NH+]1CCCC1`, 8.3.
`CC(=O)NO` registered a pKa of 9.07.
Still for that read-out and setting: as for `O=C(O)[C@H]1CCC[C@H](O)C1`, the figure is 4.82.
On the same count and under the same terms, as for `CN(C)Cc1ccccc1O`, the figure is 11; as for `Nc1nc[nH+]c(O)c1N`, 3.57; as for `COc1cccc(CCC(=O)O)c1`, 4.65.
Still for that read-out and setting: as for `CC[NH+](CC)Cc1c(O)cccc1Cl`, the figure is 7.5.
Regarding `C[n+]1ccccc1/C=C/c1ccc(O)cc1`, the pKa was 8.4.
Compound `CCCCOC(=O)c1ccc(O)cc1` came in with a pKa of 8.34. This pKa and that of the compound before are within 0.2 log units of each other.
Same read-out and setting: for `[O-]/C(O)=C1\SCc2ccccc21` the value was 12.8; for `Nc1ccc(S(=O)(=O)Nc2ccncn2)cc1`, 6.17.

The series is the same for the next values; noted with them: basic group.
In turn, `COc1ccc(-c2cnc(-c3ccc(N)cc3)o2)cc1` showed a pKa of 3.22.
The same measure, in the same setting: for `CC(C)(C)c1cc(N)cc(C(C)(C)C)c1[N+](=O)[O-]` the value was 2.93; for `CNN(C)C`, 6.64; for `Cc1cccc(Cl)c1/C(=N/CCC[NH+](C)C)c1ccccc1`, 3.26.
On the same count and under the same terms, for `Nc1ccc(S(=O)(=O)Nc2ccc(N)nc2)cc1` the value was 4.19; for `NCc1ccncc1`, 8.3.
As for `Cc1cc(C)[n+](C)c([S-])n1`, the pKa was determined as 3.15.
Same read-out and setting: for `c1cncc(-c2ccncc2)c1` the value was 4.85; for `CNCC[NH2+]C`, 7.29; for `Cc1cc(N[NH3+])nc2ccccc12`, 2.8.
On the same count and under the same terms, as for `CCC(O)CN(CC(O)CC)C(C)(C)C` (configuration not stated), the figure is 9.6; as for `CCn1cnc2ccccc21`, 5.66; as for `Cc1ccc(CNCCN)cc1`, 9.41.
The same measure, in the same setting: as for `CC1CCCCN1C` (configuration not stated), the figure is 10.3.
With `Cc1cccc(CCCCCCCC(=O)[O-])n1`, the pKa was found to be 7.
The same measure, in the same setting: as for `COc1ccc(-c2cc3cnccc3[nH]2)c(OC)c1`, the figure is 8.49.
`NCC(=O)NN`: the pKa is 7.69.
Still for that read-out and setting: as for `CCN(CC)CCCC(C)Nc1ccnc2ccccc12` (configuration not stated), the figure is 10.2; as for `CN(CC1CO1)CC1CO1` (configuration not stated), 6.45.
The same measure, in the same setting: as for `CN(C)Cc1ccccc1O`, the figure is 8.6.
Same read-out and setting: for `Nc1nc[nH+]c(O)c1N` the value was 1.34; for `[NH3+]Cc1ccccn1`, 3.1; for `CC(Cl)CN` (configuration not stated), 8.54.
Regarding `Cc1cccc(/N=C/N(C)C)c1`, the pKa is 9.11.
Still for that read-out and setting: as for `CC[NH+](CC)[C@H]1CCC[C@@H]1N(C)C`, the figure is 5.76; as for `Cc1cccnc1N`, 7.24.
On the same count and under the same terms, for `OC[C@@H]1O[C@H](n2cnc3ccccc32)[C@@H](O)[C@H](O)[C@H]1O` the value was 4.01; for `Cc1cc([O-])[nH+]c([S-])n1`, 7.73; for `NC(=S)C([NH3+])Cc1ccccc1` (configuration not stated), -8.63.
As to `NCCCc1ccccc1`, the pKa is 10.3.
Still for that read-out and setting: for `Nc1ccc(S(=O)(=O)Nc2ccncn2)cc1` the value was 1.3.

The values above are taken from the pKa sets of Baltruschat and Czodrowski (2020).
